For one assay, the system named is trypsin. The assay can be described thus: Phage ELISA of displayed DCPs on immobilized trypsin. To be noted: DCP displayed on M13 p3 or p8, phage ELISA on trypsin-coated plates (Fig 1). (In general: In an ELISA, binding on a coated surface is turned into a signal by an enzyme label.)
A further assay deals with HGFA. As to the kind of experiment: Spot phage ELISA, HGFA. The class given is binding, human. As to conditions: for S/N: ratio of signal for target protein over BSA background, S/N > 2 positive; for ELISA: spot phage ELISA signal, DCP displayed on M13 p8, phage supernatant 1:3 in PBT, anti-M13-HRP, TMB.
The subject of the next assay is Notch2Long. As to the kind of experiment: Spot phage ELISA, Notch2Long. It is filed as binding, human. As to conditions: for ELISA: spot phage ELISA signal.
The next assay deals with R-spondin. The assay can be described thus: Spot phage ELISA, R-spondin. To be noted: for S/N: ratio of signal for target protein over BSA background; for ELISA: spot phage ELISA signal, DCP displayed on M13 p8. It is filed as binding, human.
Another assay addresses T1, HtrA1 FL (Homo sapiens, UniProt Q92743).
T1 construct: HtrA1 (Q23-P480, 5654, Tni Baculovirus); made in house; host or cells: Trichoplusia ni (Tni) cells, baculovirus
The class given is binding. As to conditions: read-out: Kd(μM) SPR.

For another assay, the system named is HtrA1. The class given is binding, human. As to conditions: ratio of signal for target protein over BSA background.
For a further assay, the target named is T2, Her3-Fc (Homo sapiens, UniProt P21860).
T2 construct: purchased R&D 348-RB
T2 sequence (P21860 20-643 limits assumed): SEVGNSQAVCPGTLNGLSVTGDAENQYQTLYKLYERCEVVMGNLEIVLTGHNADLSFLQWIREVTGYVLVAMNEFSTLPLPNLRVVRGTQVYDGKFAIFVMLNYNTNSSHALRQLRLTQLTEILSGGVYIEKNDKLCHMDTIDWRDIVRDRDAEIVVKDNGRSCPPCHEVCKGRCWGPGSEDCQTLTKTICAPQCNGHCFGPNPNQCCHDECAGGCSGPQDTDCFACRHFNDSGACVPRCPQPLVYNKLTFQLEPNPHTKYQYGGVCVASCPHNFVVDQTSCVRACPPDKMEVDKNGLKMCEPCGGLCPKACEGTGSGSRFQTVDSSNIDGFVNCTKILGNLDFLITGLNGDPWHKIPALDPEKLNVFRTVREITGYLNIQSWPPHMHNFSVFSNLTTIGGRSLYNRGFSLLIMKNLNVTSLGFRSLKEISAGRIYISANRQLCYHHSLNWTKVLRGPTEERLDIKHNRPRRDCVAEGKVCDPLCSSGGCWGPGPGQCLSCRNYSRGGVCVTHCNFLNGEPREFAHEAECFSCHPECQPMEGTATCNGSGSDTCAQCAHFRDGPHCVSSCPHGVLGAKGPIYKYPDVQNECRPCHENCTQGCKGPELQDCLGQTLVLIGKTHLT
As to the kind of experiment: Spot phage ELISA, Her3-Fc. The class given is binding. To be noted: for S/N: ratio of signal for target protein over BSA background; for ELISA: spot phage ELISA signal, DCP displayed on M13 p8.

Where two headings read alike, the source gives them in different places. Where a SMILES comes first, the peptide text is derived from it. Bridges are numbered along the chain shown (N, C = ends). Where no end group is shown, it is not given here.

T1 sequence (Q92743 23-480): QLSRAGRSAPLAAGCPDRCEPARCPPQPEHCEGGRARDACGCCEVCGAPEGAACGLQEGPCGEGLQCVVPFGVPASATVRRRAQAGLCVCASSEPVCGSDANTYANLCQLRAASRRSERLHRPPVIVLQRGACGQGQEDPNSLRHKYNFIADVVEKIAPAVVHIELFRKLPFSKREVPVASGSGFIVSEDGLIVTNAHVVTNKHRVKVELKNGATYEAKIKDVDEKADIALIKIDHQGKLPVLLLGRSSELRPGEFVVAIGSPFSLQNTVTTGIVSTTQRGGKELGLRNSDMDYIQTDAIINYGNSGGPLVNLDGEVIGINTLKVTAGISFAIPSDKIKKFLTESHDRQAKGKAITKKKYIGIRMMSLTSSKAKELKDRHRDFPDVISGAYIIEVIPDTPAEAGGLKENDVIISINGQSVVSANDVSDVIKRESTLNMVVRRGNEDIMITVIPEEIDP
Method for trypsin: The DCPs, incorporating an N-terminal gD-tag for quantification of display levels, were fused at the C-terminal to the major M13 coat protein p8 or the C-terminal domain of minor coat protein p3 (Fig 1A).
The display level was analyzed using phage ELISA described previously [47].

Turning to “GCPRILKRCKRDSDCLAGCVCRGNGFCG (also: bicyclic or more (positions not given here)) [EETI-mut]”, the “phage binding to immobilized trypsin” value with trypsin is on record as “significantly disrupted”. For “GCALSIHWWLWPCKQDSDCLAGCVCGPNGFCG (also: bicyclic or more (positions not given here)) [HGFA EET I-II 20]”, in the assay with HGFA, the S/N worked out at 13.5 and the ELISA turned out to be 1.93. As to “GPSHSQYCHCGGIGYVGGHYCSCTNYQDEWGFESRCLPGAS [HGFA CBD 9]”, in the assay on HGFA, the S/N is 25.0 and the ELISA is given as 1.80. With `CC[C@H](C)[C@@H]1NC(=O)[C@@H]2CCCN2C(=O)[C@H](CCC(=O)O)NC(=O)[C@@H]2CSSC[C@@H]3NC(=O)[C@H](Cc4c[nH]cn4)NC(=O)[C@H](Cc4c[nH]c5ccccc45)NC(=O)[C@H](CC(C)C)NC(=O)[C@H]([C@@H](C)O)NC(=O)[C@H](Cc4c[nH]c5ccccc45)NC(=O)CNC(=O)[C@@H](NC(=O)CN)CSSC[C@H](NC(=O)CNC(=O)[C@H](C)NC(=O)[C@H](CC(C)C)NC(=O)[C@H](CSSC[C@@H](C(=O)NCC(=O)O)NC(=O)[C@H](Cc4c[nH]c5ccccc45)NC(=O)[C@H](Cc4c[nH]c5ccccc45)NC1=O)NC(=O)[C@H](CC(=O)O)NC(=O)[C@H](CO)NC(=O)[C@H](CC(=O)O)NC(=O)[C@H](CCC(N)=O)NC(=O)[C@H](CCCCN)NC3=O)C(=O)N[C@@H](C(C)C)C(=O)N2` [N2L-EET-03] (HELM PEPTIDE1{G.C.G.W.T.L.W.H.C.K.Q.D.S.D.C.L.A.G.C.V.C.E.P.I.W.W.C.G}$PEPTIDE1,PEPTIDE1,2:R3-19:R3|PEPTIDE1,PEPTIDE1,9:R3-21:R3|PEPTIDE1,PEPTIDE1,15:R3-27:R3$$$V2.0; N-terminus and C-terminus assumed), the “s/n ratio” value in the assay on Notch2Long (Table 3, affinity maturation clones, signal over BSA background) was determined as 3.1. For the same compound, the ELISA in the assay on Notch2Long (Table 3, affinity maturation clones, display (p8 or p3) not given per clone) came out at 0.4; in the assay on Notch2Long (initial hits, DCP displayed on M13 p8), 0.35. Further, the S/N with Notch2Long (initial hits, ratio of signal for target protein over BSA background) is 3.1.

As for “GCAESQHWWLWGCKQDSDCLAGCVCGPNGFCG (also: bicyclic or more (positions not given here)) [HGFA EET I-II 31]”, in the assay with HGFA, the S/N is 22.4 and the ELISA is on record as 1.95. For “GCQWIAHWWLWDCKQDSDCLAGCVCGPNGFCG (also: bicyclic or more (positions not given here)) [HGFA EET I-II 86]” the same measures were 22.6 and 1.92.

Consider “GCLASHPWWSVWCKQDSDCLAGCVCQEMGICG (also: bicyclic or more (positions not given here)) [R-spondin EETI-II 31]”, for which, in the assay on R-spondin, the S/N amounted to 11.4 and the ELISA was 0.72. As for “GPTQSFWGWCGGIGYVGGRYCSGTTCQRPDAHWSQCLPGAS (disulfide 10-26, 21-36 (inferred)) [HtrA1_CBDamy86]”, the Kd on HtrA1 FL turned out to be 158 µM. Besides, the S/N with HtrA1 is recorded as 22.8.

“GCDPWIWQEWGVCKQDSDCLAGCVCGPNGFCG (also: bicyclic or more (positions not given here)) [R-spondin EETI-II 47]”: in the assay on R-spondin, the S/N was found to be 13.7 and the ELISA is 1.06. `CC[C@H](C)[C@@H]1NC(=O)[C@H](Cc2ccccc2)NC(=O)[C@H](Cc2ccc(O)cc2)NC(=O)[C@H](C(C)C)NC(=O)[C@H](CCSC)NC(=O)[C@H](C(C)C)NC(=O)[C@@H]2CSSC[C@H](NC(=O)[C@H](CC(=O)O)NC(=O)[C@H](Cc3ccccc3)NC(=O)[C@H](C)N)C(=O)N[C@@H](CC(C)C)C(=O)NCC(=O)N[C@@H](CCC(N)=O)C(=O)N[C@H]3CSSC[C@H](NC(=O)[C@H](Cc4ccc(O)cc4)NC(=O)[C@@H]4CCCN4C(=O)[C@H](CCCCN)NC(=O)[C@H]([C@@H](C)O)NC(=O)[C@H](CCSC)NC(=O)[C@H](Cc4c[nH]cn4)NC1=O)C(=O)N[C@@H](CC(N)=O)C(=O)N[C@@H](CO)C(=O)N[C@@H](CO)C(=O)N[C@H](C(=O)N[C@H](C(=O)N[C@@H](CCCNC(=N)N)C(=O)O)[C@@H](C)O)CSSC[C@H](NC(=O)[C@H](CCCNC(=N)N)NC(=O)CNC3=O)C(=O)N[C@@H](CC(=O)O)C(=O)N[C@@H](Cc1ccccc1)C(=O)N[C@@H](Cc1c[nH]cn1)C(=O)N[C@@H](CCCCN)C(=O)N[C@@H](CC(C)C)C(=O)N[C@@H](CCC(N)=O)C(=O)N2` [HtrA1_AVR61] (HELM PEPTIDE1{A.F.D.C.L.G.Q.C.G.R.C.D.F.H.K.L.Q.C.V.M.V.Y.F.I.H.M.T.K.P.Y.C.N.S.S.C.T.R}$PEPTIDE1,PEPTIDE1,4:R3-18:R3|PEPTIDE1,PEPTIDE1,8:R3-31:R3|PEPTIDE1,PEPTIDE1,11:R3-35:R3$$$V2.0; N-terminus and C-terminus assumed): the Kd at HtrA1 FL (Biacore S200, 25°C, biotinylated HtrA1 FL on chip SA, 10 mM HEPES (8.0), 200mM NaCl, 0.25% CHAPS, 5% DMSO, steady state fitting, n/d = no binding) is over 20 µM. In addition, the S/N with HtrA1 was 24.4. Consider “SGSDGGVCPKILKKCRRDSDCPGACICRGNGYCG (also: bicyclic or more (positions not given here)) [MCoTI-II]”, for which the “phage binding to immobilized trypsin” value with trypsin is “showed binding signals”.

Consider “GCQLHYSQQGCKQYSULSGLVLWYTIHRLLRWRI [Her3-Fc EET I-II 4]”, for which, on Her3-Fc, the S/N amounted to 21.1 and the ELISA was found to be 1.45. For “GCPRILMRCKQDSDCLAGCVCAGPPPCG (also: bicyclic or more (positions not given here)) [Her3-Fc EET I-II 42]”, in that order: 23.8 and 1.52. Turning to “GCQWDWWMEEWWCKQDSDCLAGCVCGPNGFCG (also: bicyclic or more (positions not given here)) [HGFA EET I-II 14]”, in the assay with HGFA, the S/N stood at 15.2 and the ELISA came to 1.75. For “GCPRILMRCKQDSDCLSGCVCSGPPPCG (also: bicyclic or more (positions not given here)) [Her3-Fc EET I-II 24]”, at Her3-Fc, the S/N is 16.6 and the ELISA stood at 1.61.

In the case of “GCHPDPWWCKQDSDCLARWCG [Her3-Fc EET I-II 37]”, on Her3-Fc, the S/N is on record as 43.4 and the ELISA stood at 3.17. With “GLPVCGETCVGGTCNTPGCTCSWPVCTRN (also: bicyclic or more (positions not given here)) [kalata B1]”, in the assay with trypsin, the “phage binding to immobilized trypsin” value was “did not exhibit any binding signal”.

On to “GCYWDSWFDEWVCKQDSDCLAGCVCGPNGFCG (also: bicyclic or more (positions not given here)) [HGFA EET I-II 59]”, for which, in the assay with HGFA, the S/N is listed as 13.4 and the ELISA was determined as 1.67.

Take “GPTQSWQGRCGGIGYSGPTVCASGTTCQVLTPYWSECLPGAS (disulfide 10-27, 21-37 (inferred)) [Her3-Fc_CBD1]”: the S/N at Her3-Fc is 20.2. At Her3-Fc (listed as Her3-Fc CBD 3), this compound returned an ELISA of 1.65. Consider “GCISKWFSCKQDSDCLAGCVCLLWQDCG (also: bicyclic or more (positions not given here)) [Her3-Fc EET I-II 67]”, for which, on Her3-Fc, the S/N came out at 20.1 and the ELISA was 1.54. As to “GCPRILIRCKQDSDCLAGCVCSGPPPCG (also: bicyclic or more (positions not given here)) [Her3-Fc EET I-II 47]”, on Her3-Fc, the S/N is reported as 22.4 and the ELISA is 1.64. “GCEWDWWFDQWICKQDSDCLAGCVCGPNGFCG (also: bicyclic or more (positions not given here)) [HGFA EET I-II 16]”: in the assay on HGFA, the S/N came to 14.5 and the ELISA is recorded as 1.92.

Take “GCPRILMRCKQDSDCLAGCVCSGPPPCG (also: bicyclic or more (positions not given here)) [Her3-Fc EET I-II 7]”: on Her3-Fc, the S/N amounted to 24.5 and the ELISA is 1.60.

Broadly, the Kd is the equilibrium constant for the complex coming apart.

For the origin of these results see PMC10977697 (PLOS ONE, 2024).
